One experiment concerns the target T1, human IRAK4 (Homo sapiens, UniProt Q9NWZ3).
T1 construct: purchased Reaction Biology Corp
T1 sequence (Q9NWZ3 1-460): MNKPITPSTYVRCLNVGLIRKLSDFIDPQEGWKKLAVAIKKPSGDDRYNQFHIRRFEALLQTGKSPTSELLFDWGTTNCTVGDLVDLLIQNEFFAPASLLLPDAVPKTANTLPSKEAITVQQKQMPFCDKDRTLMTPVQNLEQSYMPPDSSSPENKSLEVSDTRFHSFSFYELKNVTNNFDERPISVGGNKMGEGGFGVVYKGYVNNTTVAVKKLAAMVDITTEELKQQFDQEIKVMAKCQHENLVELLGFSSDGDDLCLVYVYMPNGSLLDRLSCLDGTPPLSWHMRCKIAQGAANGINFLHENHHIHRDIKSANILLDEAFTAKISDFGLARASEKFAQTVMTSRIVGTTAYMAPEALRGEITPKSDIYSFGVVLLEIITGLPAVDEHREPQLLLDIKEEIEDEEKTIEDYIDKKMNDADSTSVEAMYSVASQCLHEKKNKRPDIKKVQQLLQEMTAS
Briefly: In vitro IRAK4 kinase activity, 33P isotope-labeled kinase assay. Type of experiment: biochemical. The protocol: The IC50 values were determined using ^33P isotope-labeled kinase activity assay (Reaction Biology Corp) to evaluate the inhibitory ability of the tested compounds on human IRAK4.
(§1) Buffer conditions: 20 mM Hepes (pH 7.5), 10 mM MgCl2, 1 mM EGTA, 0.02% Brij35, 0.02 mg/mL BSA, 0.1 mM Na3VO4, 2 mM DTT, 1% DMSO.
Test procedure: At room temperature, the tested compound was dissolved in DMSO and a 10 mM solution was prepared for use. The substrate was dissolved in a newly prepared buffer solution, and the tested IRAK4 kinase was added thereto and mixed evenly. The DMSO solution dissolved with the tested compound was added to the above mixed evenly reaction solution using acoustic technique (Echo 550). After incubation for 15 minutes, ^33P-ATP was added to initiate the reaction. The reaction was carried out at room temperature for 120 minutes, and the reaction mixture was dropped on P81 ion exchange filter paper (Whatman #3698-915). The filter paper was washed repeatedly with 0.75% phosphoric acid solution, and the radioactivity of phosphorylated substrate residues on the filter paper was determined. The kinase activity data were expressed by comparing the kinase activity of the group containing the tested compound with the kinase activity of the blank group (only containing DMSO), and the IC50 value was obtained by curve fitting by Prism4 software (GraphPad), the experimental results were shown in Table 2.

In a further experiment the target is T2, human BTK (Homo sapiens, UniProt Q06187).
T2 construct: purchased Reaction Biology Corp
The experiment is described as follows: In vitro BTK kinase activity, 33P isotope-labeled kinase assay. Type of experiment: biochemical. The protocol: The IC50 values were determined using ^33P isotope-labeled kinase activity assay (Reaction Biology Corp) to evaluate the inhibitory ability of the tested compounds on human BTK.
as §1
Test procedure: At room temperature, the tested compound was dissolved in DMSO and a 10 mM solution was prepared for use. The substrate was dissolved in a newly prepared buffer solution, and the BTK kinase was added thereto and mixed evenly. The compound dissolved in DMSO was added to the kinase reaction mixture through Echo 550 (Acoustic technology; Nanoliter range). After incubation for 20 minutes at room temperature, ^33P-ATP was added to initiate the reaction. The reaction was carried out at room temperature for 2 hours, and the radioactivity of the reaction solution drop was detected by filtration-binding method with P81 ion exchange filter paper. The kinase activity data were expressed by comparing the kinase activity of the group containing the tested compound with the kinase activity of the blank group (only containing DMSO), and the IC50 value was obtained by curve fitting by Prism4 software (GraphPad), the experimental results were shown in Table 3.

Experiment [1] concerns TNF-α production in THP-1 cells. Briefly: TNF-α ELISA in LPS-stimulated THP-1 cells. Type of experiment: cell-based. The settings on record: Homo sapiens, TNF-α in supernatant, 150 ng/mL LPS, 18 hours. The protocol:
THP-1 human acute single cell leukemia cells were purchased from ATCC (Cat #TIB-202) and cultured at 37° C. in 5% CO2 incubator. The composition of medium was RPMI1640 (Gibco, Cat #22400-105), and the supplementary compositions were 10% FBS (Gibco, Cat #10091148); 1% PenStrep (Gibco, Cat #15140); 0.05 mM β-mercaptoethanol (Sigma, Cat #M6250).
TNF-α Elisa kit was used to detect the content of TNF-α in cell culture supernatant samples. TNF-α was produced by stimulating THP-1 cells with 150 ng/mL LPS (Sigma, Cat #L6529).
THP-1 cells cultured normally at logarithmic growth period were seeded in a 96-well plate (Corning #3599) at a certain concentration (1*10^5/100 μL) and then put into a cell incubator for incubation. After two hours, 16.7 μL of different concentrations of the compound to be tested (8*final concentration) were added and incubated in an incubator. After one hour, 16.7 μL of 1200 ng/mL LPS was added and incubated in an incubator. After 18 hours, the culture supernatant samples were collected by centrifugation, and the content of TNF-α could be detected by TNF-α Elisa kit. Finally, OD signals (OD450-OD570) were read on envision board reader.
The OD450-OD570 signal value was converted into a percentage inhibition rate.
Inhibition rate %=(ZPE−sample)/(ZPE−HPE)*100.
“HPE” referred to the OD450-OD570 signal value of the control well without LPS stimulated cells, and “ZPE” referred to the OD450-OD570 signal value of the control well with LPS stimulated cells. The IC50 value of the compound was calculated by XLFit in the excel add-in.
Y=Bottom+(Top−Bottom)/(1+(IC50/X)^HillSlope). Equation: […]

In experiment [2] the test system is OCI-LY10 human diffuse large B lymphoma cells. Briefly: OCI-LY10 cell proliferation (Cell Titer Glo). Type of experiment: cell-based. The conditions noted are these: 72 hours. The protocol:
(§2) The tumor cell lines OCI-LY10 and TMD-8 were used to detect the effect of the compound of the disclosure on inhibiting tumor cell proliferation in vitro.
OCI-LY10 human diffuse large B lymphoma cells, from Nanjing Cobioer Biotechnology Co., Ltd
(§3) The compound was diluted with DMSO to a final concentration of 10 mM. The compound was freshly prepared and ready for use.
(§4) a) Logarithmic growth period cells were collected, counted, resuspended with complete culture medium, the cell concentration was adjusted to an appropriate concentration (determined according to the results of cell density optimization test), inoculated on 96-well plates, and 100 μL of cell suspension was added to each well. Cells were incubated in an incubator with 37° C., 100% relative humidity and 5% CO2 for 24 hours.
(§5) b) The compound to be tested was diluted to 50 μM with culture medium and then gradient diluted for 8 times. Cells were added with 25 μL/well. The final concentrations of the compound were from […], 3-fold gradient dilution, with a total of 9 concentration points.
(§6) c) Cells were incubated in an incubator with 37° C., 100% relative humidity and 5% CO2 for 72 hours;
(§7) d) 60 μL of CTG test reagent was added to the culture medium.
(§8) e) Shaked fully and reacted in the dark for 10 min. Luminescence was measured on ENVISION and the inhibition rate was calculated.
(§9) Cell growth inhibition rate %=[(RLUv−RLUs)/(RLUv−RLUb)]×100%

The test system of experiment [3] is TMD-8 human diffuse large B lymphoma cells. Briefly: TMD-8 cell proliferation (Cell Titer Glo). The conditions noted are these: TMD8, 72 hours. Type of experiment: cell-based. The protocol:
as §2
TMD-8 human diffuse large B lymphoma cells, from Nanjing Cobioer Biotechnology Co., Ltd
as §3, §4, §5, §6, §7, §8, §9

A further experiment deals with OCI-LY3 cell line. The experiment is described as follows: OCI-LY3 cell proliferation (CTG). Type of experiment: cell-based. The settings on record: Homo sapiens, 72 hours. The protocol:
The tumor cell line OCI-LY3 was used to detect the effect of the compound of the disclosure on inhibiting tumor cell proliferation in vitro.
The tumor cell line used in this experiment was provided by Nanjing Cobioer Biotechnology Co., Ltd. See Table 6 below for specific information.
The OCI-LY3 cell line was cultured in the corresponding medium at 37° C. and 5% CO2, and the logarithmic growth period cells were used for experimental planking. The cells were collected and centrifuged at 800 rpm for 5 minutes, and the culture medium was re-suspended and spread in a 96-well plate. After being cultured overnight in 37° C., 5% CO2 incubator, drugs with different concentration gradients (10 μL of prepared diluent of test compound was added) were added, and incubated in 37° C., 5% CO2 incubator for 72 hours. The cell culture plate was incubated with CTG reagent at room temperature in the dark for 30 minutes and return to room temperature. CTG solution was added into the biosafety cabinet in the dark 100 μL/well, and was shaken and mixed evenly on plate shaker in the dark for 2 minutes, and incubated at room temperature in the dark for 10 minutes. The luminous value was read and recorded with Perkin Elmer Envision instrument.
The luminous value of the blank control group was subtracted from the luminous value measured at each drug concentration, the ratio of this value to DMSO group was taken as the cell inhibition rate (%). GraphPad software was used, the logarithm of drug concentration (log drug concentration) versus inhibition rate was plotted, and the IC50 value and 95% confidence value were automatically fitted and calculated by log (inhibitor) vs. response-variable slop (four parameters) algorithm of nonlinear regression by software.

Experiment [4] deals with human diffuse large B lymphoma TMD8 cell subcutaneous xenograft. Briefly: TMD8 subcutaneous xenograft tumor model (WX009 study). The experiment is classed as in vivo, SCID mouse. The settings on record: 20 mg/kg QD PO, 18th day after administration. The source says: The formula for calculating the tumor inhibition rate TGI (%)=[1−(average tumor volume at the end of administration in a treatment group-average tumor volume at the beginning of administration in the treatment group))/(average tumor volume at the end of treatment in solvent control group-average tumor volume at the beginning of treatment in solvent control group)]×100%.

The test system is the same in experiment [5]. Briefly: TMD8 subcutaneous xenograft tumor model (WX017 and WX027 study). The conditions noted are these: 20 mg/kg QD PO, 11th day after administration.
Procedure: a) TMD8 cells were cultured in RPMI-1640 medium containing 10% FBS and maintained in a 37° C. saturated humidity incubator with 5% CO2. TMD8 cells in logarithmic period were collected, resuspended in RPMI-1640 basal medium, and Matrigel was added at 1:1, and the cell concentration was adjusted to 4×10^7/mL. Under aseptic conditions, 0.1 mL of cell suspension was inoculated under the skin of the right back of SCID mice, and the inoculation concentration was 4×10^6/0.1 mL/mouse.
When the tumor grew to a certain size, the animals with too large, too small or irregular tumor shape were excluded, and the animals with tumor volume of 108.76-188.11 mm^3 were selected. According to the tumor volume, the animals were divided into 10 groups by random block method, with 6 mice in each group, and the average tumor volume was about 152.11 mm^3. The health status and death of animals were monitored every day, and routine examinations included observing the effects of tumor growth and drug treatment on daily behaviors of animals, such as behavioral activities, food intake and water intake, weight change (weight was measured twice a week), tumor size (tumor volume was measured twice a week), appearance signs or other abnormal conditions.
The formula for calculating tumor volume (TV) was: 1/2×a×b^2, where a and b were the measured length and width of the tumor respectively. The formula for calculating the tumor inhibition rate TGI (%)=[1−(average tumor volume at the end of administration in a treatment group-average tumor volume at the beginning of administration in the treatment group))/(average tumor volume at the end of treatment in solvent control group-average tumor volume at the beginning of treatment in solvent control group)]×100%.
In this study, the experimental data were all expressed by Mean±SEM. Statistical analysis was based on the data of RTV at the end of the experiment and analyzed by IBM SPSS Statistics software. T test was used to analyze the comparison between two groups, and one-way ANOVA was used to analyze the comparison between three or more groups. If the variance was even (there was no significant difference in F value), Tukey's method was used to analyze it, and if the variance was uneven (there was significant difference in F value), Games-Howell method was used to test it. p<0.05 was deemed to a significant difference.

The values below come from patent US20230391776A1, “AMIDE OXAZOLE COMPOUND” (MEDSHINE DISCOVERY INC., priority 2020, published 2023).

T2 sequence (Q06187 whole entry): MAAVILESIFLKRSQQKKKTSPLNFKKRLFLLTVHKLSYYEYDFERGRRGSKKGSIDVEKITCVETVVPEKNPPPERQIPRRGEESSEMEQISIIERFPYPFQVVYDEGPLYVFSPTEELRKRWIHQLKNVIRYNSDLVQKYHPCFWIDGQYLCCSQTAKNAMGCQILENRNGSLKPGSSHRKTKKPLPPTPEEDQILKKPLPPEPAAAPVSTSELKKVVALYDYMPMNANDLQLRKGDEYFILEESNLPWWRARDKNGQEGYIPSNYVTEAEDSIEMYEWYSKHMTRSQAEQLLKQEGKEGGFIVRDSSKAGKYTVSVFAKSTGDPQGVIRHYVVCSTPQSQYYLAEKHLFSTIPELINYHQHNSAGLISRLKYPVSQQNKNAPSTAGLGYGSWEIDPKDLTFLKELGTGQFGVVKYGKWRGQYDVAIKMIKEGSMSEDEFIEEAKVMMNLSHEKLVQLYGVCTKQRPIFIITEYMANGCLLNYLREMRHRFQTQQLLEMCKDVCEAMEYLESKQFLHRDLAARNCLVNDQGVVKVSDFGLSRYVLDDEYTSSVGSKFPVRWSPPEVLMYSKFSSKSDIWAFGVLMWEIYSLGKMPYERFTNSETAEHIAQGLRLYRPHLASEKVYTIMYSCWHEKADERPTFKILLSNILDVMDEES

Consider `CC(C)(O)CCc1cn2cc(NC(=O)c3coc(-c4ccnc(N)c4)n3)c(N3CCCCC3)cc2n1` [WX001], for which the IC50 against human IRAK4 is 1.8 nM; on human BTK it was 7.9 nM; in experiment [1], 20 nM; in experiment [2], 29 nM; in experiment [3] it was 10 nM; with OCI-LY3 cell line it was 57 nM.

Consider `CS(=O)(=O)CCc1cn2cc(NC(=O)c3coc(-c4ccnc(N)c4)n3)c(-c3ccccc3)cc2n1` [WX013], for which the IC50 against human IRAK4 was found to be 1.8 nM; on human BTK it was 2.9 nM; in experiment [1], 6 nM; in experiment [2] it was 8 nM; in experiment [3] it was 20 nM; with OCI-LY3 cell line, 34 nM.

On to `CN(C)CCc1cn2cc(NC(=O)c3coc(-c4ccnc(N)c4)n3)c(-c3ccccc3)cc2n1` [WX016], for which the concentration for half-maximal inhibition (IC50) came out at 2 nM on human IRAK4; 1.6 nM on human BTK; 3 nM in experiment [2]; 6 nM in experiment [3]; 37 nM in the experiment on OCI-LY3 cell line.

With `Cc1nccc(-c2nc(C(=O)Nc3cn4cc(C(C)(C)O)nc4cc3-c3ccccc3)co2)c1Cl` [WX036], the IC50 at human IRAK4 came out at 0.4 nM; in experiment [1], 57.1 nM; in experiment [2], 15.2 nM; in experiment [3] it was 16.7 nM; in the experiment with OCI-LY3 cell line it was 42 nM.

In the case of `C=CC(=O)N1CCC[C@@H](n2nc(-c3ccc(Oc4ccccc4)cc3)c3c(N)ncnc32)C1` [ibrutinib, reference compound], the TGI stood at 12.95% in experiment [4], 13% in experiment [4] (listed as Ibrahim) and 39% in experiment [5].
